Test results from patent US10815210B2, “Benzocyclobutane derivatives useful as dual SGLT1 / SGLT2 modulators” (Janssen Pharmaceutica NV, priority 2016, dated 2020).

Experiments:
human SGLT1 = target: T1, human SGLT1 (Homo sapiens, UniProt P13866); assay: SGLT1 assay: Na-dependent 14C-AMG uptake in CHO-K1 cells stably expressing human SGLT1; assay type: cell-based; details: for IC50: 500 μM AMG, 2 hours at 37° C.
T1 construct: expressed in transfected cells; host or cells: CHO-K1
T1 sequence (P13866 1-664): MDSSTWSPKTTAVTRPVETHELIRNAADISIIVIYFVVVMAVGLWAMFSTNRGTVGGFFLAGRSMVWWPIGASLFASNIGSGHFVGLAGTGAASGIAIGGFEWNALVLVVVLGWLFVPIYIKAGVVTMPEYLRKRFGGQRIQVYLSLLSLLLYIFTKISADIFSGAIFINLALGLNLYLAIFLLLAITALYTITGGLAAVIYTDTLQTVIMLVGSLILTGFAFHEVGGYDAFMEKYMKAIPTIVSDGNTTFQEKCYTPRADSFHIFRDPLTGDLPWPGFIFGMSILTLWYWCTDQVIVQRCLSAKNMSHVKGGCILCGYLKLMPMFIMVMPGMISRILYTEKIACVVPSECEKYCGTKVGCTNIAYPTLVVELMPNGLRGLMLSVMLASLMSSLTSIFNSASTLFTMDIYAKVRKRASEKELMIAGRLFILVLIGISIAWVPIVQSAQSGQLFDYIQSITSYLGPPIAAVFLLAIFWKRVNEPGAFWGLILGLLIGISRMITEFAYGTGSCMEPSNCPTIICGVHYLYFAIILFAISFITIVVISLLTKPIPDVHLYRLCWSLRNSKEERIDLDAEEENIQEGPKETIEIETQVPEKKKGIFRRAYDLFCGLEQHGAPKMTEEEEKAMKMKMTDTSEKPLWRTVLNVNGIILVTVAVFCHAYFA
Protocol: (§1) SGLT1 and SGLT2 were cloned in form of cDNA from human small intestine (Genbank M24847), and from human kidney (Genbank M95549), respectively. Subsequently, each full cDNA was subcloned into pcDNA with each construct's integrity verified through follow-on sequencing. To generate CHO-K1 cells that stably express human SGLT1 or human SGLT2, CHO-K1 cells were transfected using DMRIE-C reagent (Life Technologies, Gaithersburg, Md.). Transfected cells were then selected in the presence of 500 μg/ml of the Geneticin (G418 Cellgro Catalog No. 30234-CI)
(§2) Individual clones were then characterized using the following cell-based assay for sodium-dependent glucose transport:
(§3) Inhibition of SGLT1 and SGLT2 activity was assessed in CHO K1 cells stably expressing either human SGLT1 or SGLT2, using the SGLT specific glucose analog methyl-glucopyranoside (Sigma Catalog No. M-9376). Cells were plated (45,000 cells/well) in white wall 96-well plates (COSTAR, Cat#3903) for 24 hours in growth medium, then a final concentration of 10 mM Na-Butyrate (ALDRICH Cat#30341-0) was added. The cells were incubated for 24 hours. On the day of the assay, cells were rinsed and treated with test compounds (at concentrations of 0.001 μM to 10 μM) in assay buffer (50 mM HEPES, 20 mM Tris base, 5 mM KCl, 1 mM MgCl2, 1 mM CaCl2 and 137 mM NaCl, pH 7.4) for 10 minutes. Cells were then incubated with ^14C-a-methyl-d-glucopyranoside (AMG, Amersham Catalog No. CFB 76), using 0.07 μCi per well in 500 μM AMG final concentration. The cells were incubated for 2 hours at 37° C. with 5% CO2 and washed two times with ice-cold Phosphate Buffer Solution (Cellgro Catalog No. 21030-CV). The cells were then solubilized by adding 60 μl of MICROSCINT™20 and the Na-dependent ^14C-AMG uptake was quantified by measuring radioactivity. Plates were counted in a TopCount (Packard, Meriden, Conn.)

human SGLT2 = target: T2, human SGLT2 (Homo sapiens, UniProt P31639); assay: SGLT2 assay: Na-dependent 14C-AMG uptake in CHO-K1 cells stably expressing human SGLT2; assay type: cell-based; details: for IC50: 500 μM AMG, 2 hours at 37° C.
T2 construct: expressed in transfected cells; host or cells: CHO-K1
T2 sequence (P31639 1-672): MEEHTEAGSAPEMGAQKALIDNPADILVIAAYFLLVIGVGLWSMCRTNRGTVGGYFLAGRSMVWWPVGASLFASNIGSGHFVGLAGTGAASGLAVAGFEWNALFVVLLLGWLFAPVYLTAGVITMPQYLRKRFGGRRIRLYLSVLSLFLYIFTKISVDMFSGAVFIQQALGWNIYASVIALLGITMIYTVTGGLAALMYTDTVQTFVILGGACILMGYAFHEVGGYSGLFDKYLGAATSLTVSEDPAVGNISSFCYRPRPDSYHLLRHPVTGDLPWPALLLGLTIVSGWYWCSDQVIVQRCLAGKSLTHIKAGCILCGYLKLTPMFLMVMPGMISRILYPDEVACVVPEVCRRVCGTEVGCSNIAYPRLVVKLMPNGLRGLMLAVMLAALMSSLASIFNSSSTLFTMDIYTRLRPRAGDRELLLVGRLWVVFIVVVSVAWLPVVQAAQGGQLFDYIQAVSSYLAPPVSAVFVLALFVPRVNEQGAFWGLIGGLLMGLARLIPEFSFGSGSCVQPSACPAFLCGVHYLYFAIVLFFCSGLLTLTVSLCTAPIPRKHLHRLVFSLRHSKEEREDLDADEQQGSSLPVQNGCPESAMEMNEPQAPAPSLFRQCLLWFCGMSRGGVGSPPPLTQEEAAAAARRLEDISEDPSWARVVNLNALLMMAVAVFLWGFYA
Protocol: as §1, §2, §3

Row | IC50 (human SGLT1) | IC50 (human SGLT2) | inhibition at 0.3 µM (human SGLT1) | inhibition at 0.03 µM (human SGLT2) | SMILES
1 | 53 nM | 1 nM | – | – | COc1cc(Cl)c(Cc2ccc3c(c2)CC3)cc1[C@@H]1O[C@H](CO)[C@@H](O)[C@H](O)[C@H]1O [Compound 9]
2 | 5 nM | 1 nM | – | – | COc1cc(O)c([C@@H]2O[C@H](CO)[C@@H](O)[C@H](O)[C@H]2O)cc1Cc1ccc2c(c1)CC2 [Compound 10, (2S,3R,4R,5S,6R)-2-(5-((1,2-dihydrocyclobutabenzen-4-yl)methyl)-2-hydroxy-4-methoxyphenyl)-6-(hydroxymethyl)-tetrahydro-2H-pyran-3,4,5-triol]
3 | 58 nM | 1 nM | – | – | COc1cc(OC)c([C@@H]2O[C@H](CO)[C@@H](O)[C@H](O)[C@H]2O)cc1Cc1ccc2c(c1)CC2 [Compound 11, (2S,3R,4R,5S,6R)-2-(5-((1,2-dihydrocyclobutabenzen-4-yl)methyl)-2,4-dimethoxyphenyl)-6-(hydroxymethyl)-tetrahydro-2H-pyran-3,4,5-triol]
4 | 3 nM | 2 nM | – | – | CCc1cc(O)c([C@@H]2O[C@H](CO)[C@@H](O)[C@H](O)[C@H]2O)cc1Cc1ccc2c(c1)CC2 [Compound 12]
5 | 32 nM | 1 nM | – | – | CCc1cc(OC)c([C@@H]2O[C@H](CO)[C@@H](O)[C@H](O)[C@H]2O)cc1Cc1ccc2c(c1)CC2 [Compound 13, (2S,3R,4R,5S,6R)-2-(5-((1,2-dihydrocyclobutabenzen-4-yl)methyl)-4-ethyl-2-methoxyphenyl)-6-(hydroxymethyl)-tetrahydro-2H-pyran-3,4,5-triol]
6 | 3 nM | 6 nM | – | – | OC[C@H]1O[C@@H](c2cc(Cc3ccc4c(c3)CC4)c(C3CC3)cc2O)[C@H](O)[C@@H](O)[C@@H]1O [Compound 14, (2S,3R,4R,5S,6R)-2-(5-(bicyclo[4.2.0]octa-1(6),2,4-trien-3-ylmethyl)-4-cyclopropyl-2-hydroxyphenyl)-6-(hydroxymethyl)oxane-3,4,5-triol]
7 | – | – | 67% | 31% | COc1cc(C2CC2)c(Cc2ccc3c(c2)CC3)cc1[C@@H]1O[C@H](CO)[C@@H](O)[C@H](O)[C@H]1O [Compound 15, (2S,3R,4R,5S,6R)-2-(5-(bicyclo[4.2.0]octa-1(6),2,4-trien-3-ylmethyl)-4-cyclopropyl-2-methoxyphenyl)-6-(hydroxymethyl)oxane-3,4,5-triol]
8 | – | – | 0% | 43% | N#Cc1ccc([C@@H]2O[C@H](CO)[C@@H](O)[C@H](O)[C@H]2O)cc1Cc1ccc2c(c1)CC2 [Compound 16, 2-((1,2-dihydrocyclobutabenzen-4-yl)methyl)-4-((2S,3R,4R,5S,6R)-3,4,5-trihydroxy-6-(hydroxymethyl)-tetrahydro-2H-pyran-2-yl)benzonitrile]
9 | 192 nM | 1 nM | – | – | N#Cc1cc(O)c([C@@H]2O[C@H](CO)[C@@H](O)[C@H](O)[C@H]2O)cc1Cc1ccc2c(c1)CC2 [Compound 17, 2-((1,2-dihydrocyclobutabenzen-4-yl)methyl)-5-hydroxy-4-((2S,3R,4R,5S,6R)-3,4,5-trihydroxy-6-(hydroxymethyl)-tetrahydro-2H-pyran-2-yl)benzonitrile]
10 | – | – | 25% | 74% | COc1cc(C#N)c(Cc2ccc3c(c2)CC3)cc1[C@@H]1O[C@H](CO)[C@@H](O)[C@H](O)[C@H]1O [Compound 18, 2-((1,2-dihydrocyclobutabenzen-4-yl)methyl)-5-methoxy-4-((2S,3R,4R,5S,6R)-3,4,8-trihydroxy-6-(hydroxymethyl)-tetrahydro-2H-pyran-2-yl)benzonitrile]
11 | – | – | 62% | 38% | OC[C@H]1O[C@@H](c2cc(Cc3ccc4c(c3)CC4)c(F)cc2O)[C@H](O)[C@@H](O)[C@@H]1O [Compound 19, (2S,3R,4R,5S,6R)-2-(5-(bicyclo[4.2.0]octa-1(6),2,4-trien-3-ylmethyl)-4-fluoro-2-hydroxyphenyl)-6-(hydroxymethyl)tetrahydro-2H-pyran-3,4,5-triol]
12 | – | – | 24% | 77% | COc1cc(F)c(Cc2ccc3c(c2)CC3)cc1[C@@H]1O[C@H](CO)[C@@H](O)[C@H](O)[C@H]1O [Compound 20, (2S,3R,4R,5S,6R)-2-(5-((1,2-dihydrocyclobutabenzen-4-yl)methyl)-4-fluoro-2-methoxyphenyl)-6-(hydroxymethyl)-tetrahydro-2H-pyran-3,4,5-triol]
13 | – | – | 67% | 35% | CN(C)c1ccc([C@@H]2O[C@H](CO)[C@@H](O)[C@H](O)[C@H]2O)cc1Cc1ccc2c(c1)CC2 [Compound 21, (2S,3R,4R,5S,6R)-2-(3-(bicyclo[4.2.0]octa-1(6),2,4-trien-3-ylmethyl)-4-(dimethylamino)phenyl)-6-(hydroxymethyl)oxane-3,4,8-triol]
14 | 12 nM | 3 nM | – | – | CN(C)c1cc(O)c([C@@H]2O[C@H](CO)[C@@H](O)[C@H](O)[C@H]2O)cc1Cc1ccc2c(c1)CC2 [Compound 22, (2S,3R,4R,5S,6R)-2-(5-((1,2-dihydrocyclobutabenzen-4-yl)methyl)-4-(dimethylamino)-2-hydroxyphenyl)-6-(hydroxymethyl)-tetrahydro-2H-pyran-3,4,5-triol]
15 | – | – | 24% | 39% | COc1cc(N(C)C)c(Cc2ccc3c(c2)CC3)cc1[C@@H]1O[C@H](CO)[C@@H](O)[C@H](O)[C@H]1O [Compound 23, (2S,3R,4R,5S,6R)-2-(5-((1,2-dihydrocyclobutabenzen-4-yl)methyl)-4-(dimethylamino)-2-methoxyphenyl)-6-(hydroxymethyl)-tetrahydro-2H-pyran-3,4,5-triol]
16 | – | – | 5% | 23% | OC[C@H]1O[C@@H](c2cccc(Cc3ccc4c(c3)CC4)c2)[C@H](O)[C@@H](O)[C@@H]1O [Compound 24, (2S,3R,4R,5S,6R)-2-(3-((1,2-dihydrocyclobutabenzen-4-yl)methyl)phenyl)-6-(hydroxymethyl)-tetrahydro-2H-pyran-3,4,5-triol]
17 | – | – | 36% | 71% | OC[C@H]1O[C@@H](c2cc(Cc3ccc4c(c3)CC4)ccc2O)[C@H](O)[C@@H](O)[C@@H]1O [Compound 25, (2S,3R,4R,5S,6R)-2-(5-{bicyclo[4.2.0]octa-1(6),2,4-trien-3-ylmethyl}-2-hydroxyphenyl)-6-(hydroxymethyl)oxane-3,4,5-triol]
18 | – | – | 5% | 58% | COc1ccc(Cc2ccc3c(c2)CC3)cc1[C@@H]1O[C@H](CO)[C@@H](O)[C@H](O)[C@H]1O [Compound 26, (2S,3R,4R,5S,6R)-2-(5-(bicyclo[4.2.0]octa-1(6),2,4-trien-3-ylmethyl)-2-methoxyphenyl)-6-(hydroxymethyl)oxane-3,4,5-triol]
